Experimental data: the NIST ThermoML archive (doi:10.1021/je200128y)
Several values for one entry are separate records, joined by “and”; a condition that tells them apart may be missing. Identical values can stand only once.

Settings: Transpiration method

c1ccc(Nc2ccccc2)cc1 [diphenylamine]
Settings	vapor or sublimation pressure
293.1 K, Crystal	4e-05 kPa
293.7 K, Crystal	4e-05 kPa
296.2 K, Crystal	6e-05 kPa
298.2 K, Crystal	7e-05 kPa
298.4 K, Crystal	8e-05 kPa
300.2 K, Crystal	0.0001 kPa
301 K, Crystal	0.00012 kPa
302.1 K, Crystal	0.00013 kPa
302.7 K, Crystal	0.00015 kPa
303.2 K, Crystal	0.00014 kPa
305.2 K, Crystal	0.00017 kPa
305.5 K, Crystal	0.0002 kPa
308 K, Crystal	0.00024 kPa and 0.00025 kPa
308.2 K, Crystal	0.00026 kPa
309.1 K, Crystal	0.00029 kPa
309.3 K, Crystal	0.0003 kPa
310.7 K, Crystal	0.00034 kPa
312.3 K, Crystal	0.00042 kPa
313 K, Crystal	0.00045 kPa
313.7 K, Crystal	0.0005 kPa
315 K, Crystal	0.00054 kPa and 0.00055 kPa
315.4 K, Crystal	0.00061 kPa
315.7 K, Crystal	0.0006 kPa
316 K, Crystal	0.00065 kPa
316.7 K, Crystal	0.0007 kPa
317.2 K, Crystal	0.00075 kPa
318 K, Crystal	0.00083 kPa
318.2 K, Crystal	0.00086 kPa
318.3 K, Crystal	0.00085 kPa
318.7 K, Crystal	0.00085 kPa
320.3 K, Crystal	0.00111 kPa
320.7 K, Crystal	0.0011 kPa
322.3 K, Crystal	0.00138 kPa
323.2 K, Crystal	0.00153 kPa and 0.00143 kPa
324.1 K, Crystal	0.00169 kPa
324.7 K, Crystal	0.00164 kPa
325.2 K, Crystal	0.00186 kPa
326.7 K, Crystal	0.00203 kPa
328.3 K, Liquid	0.00245 kPa
332.2 K, Liquid	0.00343 kPa
335.4 K, Liquid	0.00438 kPa
338.1 K, Liquid	0.00522 kPa
341.2 K, Liquid	0.00684 kPa
343.2 K, Liquid	0.0081 kPa
346.1 K, Liquid	0.00963 kPa
348.2 K, Liquid	0.01174 kPa
353.1 K, Liquid	0.01698 kPa
357.2 K, Liquid	0.02181 kPa
358.2 K, Liquid	0.02355 kPa
360.2 K, Liquid	0.02829 kPa
363 K, Liquid	0.0322 kPa
363.1 K, Liquid	0.03321 kPa
366.1 K, Liquid	0.04193 kPa
368.1 K, Liquid	0.04848 kPa
368.3 K, Liquid	0.04791 kPa
371.9 K, Liquid	0.06108 kPa
373.1 K, Liquid	0.06621 kPa
